Source: patent US20200163984A1, “USE OF ISOVALERYL SPIRAMYCIN I, II AND/OR III IN MANUFACTURING MEDICAMENT FOR TREATING AND/OR PREVENTING TUMOR, AND MEDICAMENT” (SHENYANG FUYANG PHARMACEUTICAL TECHNOLOGY CO., LTD., priority 2017, published 2020)
Where two headings read alike, the source gives them in different places.

Legend:
[1] = test system: transplanted tumor of human breast cancer cell MDA-MB-231; assay: MDA-MB-231 transplanted tumor in nude mice
Method: (§1) Then cell concentration was adjusted to 1×10^7/ml with matrigel, then each nude mouse was inoculated subcutaneously with 0.2 ml of cells at its right armpit and recorded as the first day of inoculation. When the tumor grows to be greater than or equal to 100 mm^3, the mice were randomly divided into 11 groups with 6 mice in each group: a model group, a cyclophosphamide group, isovaleryl spiramycin I groups with doses of 25, 50 and 100 mg/kg, isovaleryl spiramycin II groups with doses of 25, 50 and 100 mg/kg, and isovaleryl spiramycin III groups with doses of 25, 50 and 100 mg/kg. Each group was continuously administered intragastrically for 30 days with a dose of 20 ml/kg. The mice were sacrificed the next day after drug withdrawal and the indicators were tested. The long diameter and short diameter of the tumor, and the body weight of each mouse were recorded every 3 days from drug administration to nude mouse sacrifice.
(§2) The body weight of the nude mice and the long diameter (a) and short diameter (b) of the transplanted tumor were measured every 3 days, and the tumor volume (v), relative tumor volume (RTV) and relative tumor proliferation rate (T/C) are calculated respectively according to the following formulas, wherein V=a×b^2/2; RTV=V/V0 (V0 is the tumor volume before administration, V is the tumor volume before sacrifice), and T/C (%)=treatment group RTV/model control group RTV×100%.
(§3) Each mouse was weighed and sacrificed. After the tumor was completely stripped off from the body of the mouse, the non-tumor tissues such as blood stains and fat were removed to weigh the tumor and calculate the tumor growth inhibition rate. The average tumor weight of each group of mice is used as an indicator of efficacy. Tumor growth inhibition rate (%)=(1−the average tumor weight of the treatment group/the average tumor weight of the model group)×100%.

[2] = test system: transplanted tumor of human glioblastoma cell A172; details: for Tumor Volume (mm3) (d 1): d1
Method: as §1, with “temozolomide” for “cyclophosphamide”, “[…], […], […]” for “isovaleryl spiramycin I groups with doses of 25, 50 and 100 mg/kg, isovaleryl spiramycin II groups with doses of 25, 50 and 100 mg/kg, and isovaleryl spiramycin III groups with doses of 25, 50 and 100 mg/kg.”
as §2, §3

[3] = test system: transplanted tumor of human hepatoma cell HepG-2; assay: HepG-2 transplanted tumor in nude mice
Method: as §1, §2, §3

[4] = Spleen index of A549 lung cancer tumor-bearing mice; details: for Spleen Index (%): n = 6
[5] = MDA-MB-231, 25 mg/kg (low dose) i.g. 30 days
[6] = MDA-MB-231, 50 mg/kg (medium dose) i.g. 30 days
[7] = MDA-MB-231, 100 mg/kg (high dose) i.g. 30 days
[8] = A172, high dose (100 mg/kg in method) i.g. 30 days
[9] = A172, low dose (25 mg/kg in method) i.g. 30 days
[10] = A172, medium dose (50 mg/kg in method) i.g. 30 days
[11] = HepG-2, high dose (100 mg/kg in method) i.g. 30 days
[12] = HepG-2, low dose (25 mg/kg in method) i.g. 30 days
[13] = HepG-2, medium dose (50 mg/kg in method) i.g. 30 days
[14] = MDA-MB-231, 30 mg/kg i.g. 30 days
[15] = HepG-2 nude mice, 30 mg/kg, d30

CCC(=O)O[C@@H]1CC(=O)O[C@H](C)C/C=C/C=C/[C@H](O[C@H]2CC[C@H](N(C)C)[C@@H](C)O2)[C@H](C)C[C@H](CC=O)[C@H](O[C@@H]2O[C@H](C)[C@@H](O[C@H]3C[C@@](C)(O)[C@@H](OC(=O)CC(C)C)[C@H](C)O3)[C@H](N(C)C)[C@H]2O)[C@H]1OC [Isovaleryl spiramycin III, isovaleryl spiramycin III]
Inhibition Rate (tumor growth inhibition rate) [1, 5]: 24.35%
Relative Tumor Proliferation Rate (T/C) [1, 5]: 68.36%
Relative Tumor Volume (RTV) [1, 5]: 10.68 ± 2.47
Tumor Volume (d 1) [1, 5]: 114.53 ± 6.52 mm3
Tumor Volume (d 30) [1, 5]: 1217.28 ± 267.06 mm3
Tumor Weight [1, 5]: 1.76 ± 0.20 g
Inhibition Rate (tumor growth inhibition rate) [1, 6]: 52.01%
Relative Tumor Proliferation Rate (T/C) [1, 6]: 50.12%
Relative Tumor Volume (RTV) [1, 6]: 7.83 ± 2.97
Tumor Volume (d 1) [1, 6]: 112.00 ± 10.40 mm3
Tumor Volume (d 30) [1, 6]: 860.48 ± 286.44 mm3
Tumor Weight [1, 6]: 1.11 ± 0.54 g
Inhibition Rate (tumor growth inhibition rate) ([1]; MDA-MB-231, 50 mg/kg (medium dose) i.g. 30 days, listed as isovaleryl spiramycin III): 21.01%
Inhibition Rate (tumor growth inhibition rate) [1, 7]: 62.93%
Relative Tumor Proliferation Rate (T/C) [1, 7]: 35.27%
Relative Tumor Volume (RTV) [1, 7]: 5.51 ± 2.72
Tumor Volume (d 1) [1, 7]: 115.76 ± 7.04 mm3
Tumor Volume (d 30) [1, 7]: 647.02 ± 338.62 mm3
Tumor Weight [1, 7]: 0.86 ± 0.44 g
tumor volume and relative tumor volume compared with the model group ([1]; MDA-MB-231, low, medium and high doses, P<0.05): significantly lower
mouse weight compared with the model group ([1]; mouse, in vivo): no significant changes
Relative Tumor Proliferation Rate (T/C) [2, 8]: 40.08%
tumor growth inhibition rate [2, 8]: 59.19%
Relative Tumor Proliferation Rate (T/C) [2, 9]: 66.45%
tumor growth inhibition rate [2, 9]: 15.35%
tumor volume and relative tumor volume compared with the model group ([2]; A172, low, medium and high doses, P<0.05): significantly lower
Relative Tumor Proliferation Rate (T/C) [2, 10]: 52.89%
tumor growth inhibition rate [2, 10]: 32.54%
Inhibition Rate (%) ([2]; A172 nude mice, 12.5 mg/kg): 15.35%
Relative Tumor Proliferation Rate (T/C) ([2]; A172 nude mice, 12.5 mg/kg): 66.45%
Relative Tumor Volume (RTV) ([2]; A172 nude mice, 12.5 mg/kg): 13.47 ± 1.67
Tumor Weight ([2]; A172 nude mice, 12.5 mg/kg): 1.18 ± 0.11 g
Tumor Volume (mm3) (d 1) ([2]; A172 nude mice, 12.5 mg/kg): 121.75 ± 9.98 mm3
Tumor Volume (mm3) (d30) ([2]; A172 nude mice, 12.5 mg/kg): 1305.51 ± 212.02 mm3
Inhibition Rate (%) ([2]; A172 nude mice, 25 mg/kg): 32.54%
Relative Tumor Proliferation Rate (T/C) ([2]; A172 nude mice, 25 mg/kg): 52.89%
Relative Tumor Volume (RTV) ([2]; A172 nude mice, 25 mg/kg): 12.63 ± 1.27
Tumor Weight ([2]; A172 nude mice, 25 mg/kg): 0.94 ± 0.12 g
Tumor Volume (mm3) (d 1) ([2]; A172 nude mice, 25 mg/kg): 118.81 ± 8.97 mm3
Tumor Volume (mm3) (d30) ([2]; A172 nude mice, 25 mg/kg): 1047.77 ± 165.77 mm3
Inhibition Rate (%) ([2]; A172 nude mice, 50 mg/kg): 59.19%
Relative Tumor Proliferation Rate (T/C) ([2]; A172 nude mice, 50 mg/kg): 40.08%
Relative Tumor Volume (RTV) ([2]; A172 nude mice, 50 mg/kg): 10.96 ± 0.82
Tumor Weight ([2]; A172 nude mice, 50 mg/kg): 0.57 ± 0.05 g
Tumor Volume (mm3) (d 1) ([2]; A172 nude mice, 50 mg/kg): 118.44 ± 6.21 mm3
Tumor Volume (mm3) (d30) ([2]; A172 nude mice, 50 mg/kg): 795.73 ± 174.84 mm3
mouse weight compared with the model group ([2]; mouse, in vivo): no significant changes
Body Weight (g) (d1) ([2]; mouse, in vivo, 12.5 mg/kg): 21.54 ± 0.36 g
Body Weight (g) (d30) ([2]; mouse, in vivo, 12.5 mg/kg): 20.64 ± 0.54 g
Body Weight (g) (d1) ([2]; mouse, in vivo, 25 mg/kg): 20.98 ± 0.47 g
Body Weight (g) (d30) ([2]; mouse, in vivo, 25 mg/kg): 21.54 ± 0.72 g
Body Weight (g) (d1) ([2]; mouse, in vivo, 50 mg/kg): 21.59 ± 0.32 g
Body Weight (g) (d30) ([2]; mouse, in vivo, 50 mg/kg): 20.67 ± 0.56 g
Relative Tumor Proliferation Rate (T/C) [3, 11]: 32.71%
tumor growth inhibition rate [3, 11]: 63.28%
Relative Tumor Proliferation Rate (T/C) [3, 12]: 64.69%
tumor growth inhibition rate [3, 12]: 38.92%
tumor volume and relative tumor volume compared with the model group ([3]; HepG-2, low, medium and high doses, P<0.05): significantly lower
Relative Tumor Proliferation Rate (T/C) [3, 13]: 43.18%
tumor growth inhibition rate [3, 13]: 60.54%
Inhibition Rate (%) ([3]; HepG-2 nude mice, 25 mg/kg): 38.92%
Relative Tumor Proliferation Rate (T/C) ([3]; HepG-2 nude mice, 25 mg/kg): 64.69%
Relative Tumor Volume (RTV) ([3]; HepG-2 nude mice, 25 mg/kg): 10.83 ± 2.47
Tumor Weight ([3]; HepG-2 nude mice, 25 mg/kg): 1.48 ± 0.42 g
Tumor Volume (mm3) (d 1) ([3]; HepG-2 nude mice, 25 mg/kg, d1): 116.67 ± 8.32 mm3
Tumor Volume (mm3) (d30) ([3]; HepG-2 nude mice, 25 mg/kg, d30): 1261.48 ± 283.95 mm3
Inhibition Rate (%) ([3]; HepG-2 nude mice, 50 mg/kg): 60.54%
Relative Tumor Proliferation Rate (T/C) ([3]; HepG-2 nude mice, 50 mg/kg): 43.18%
Relative Tumor Volume (RTV) ([3]; HepG-2 nude mice, 50 mg/kg): 7.23 ± 2.57
Tumor Weight ([3]; HepG-2 nude mice, 50 mg/kg): 0.96 ± 0.44 g
Tumor Volume (mm3) (d 1) ([3]; HepG-2 nude mice, 50 mg/kg, d1): 119.43 ± 10.86 mm3
Tumor Volume (mm3) (d30) ([3]; HepG-2 nude mice, 50 mg/kg, d30): 852.87 ± 293.29 mm3
Inhibition Rate (%) ([3]; HepG-2 nude mice, 100 mg/kg): 63.28%
Relative Tumor Proliferation Rate (T/C) ([3]; HepG-2 nude mice, 100 mg/kg): 32.71%
Relative Tumor Volume (RTV) ([3]; HepG-2 nude mice, 100 mg/kg): 5.48 ± 3.19
Tumor Weight ([3]; HepG-2 nude mice, 100 mg/kg): 0.89 ± 0.46 g
Tumor Volume (mm3) (d 1) ([3]; HepG-2 nude mice, 100 mg/kg, d1): 118.26 ± 6.57 mm3
Tumor Volume (mm3) (d30) ([3]; HepG-2 nude mice, 100 mg/kg, d30): 641.99 ± 364.25 mm3
mouse weight compared with the model group ([3]; mouse, in vivo): no significant changes
Body Weight (g) (d1) ([3]; mouse, in vivo, 25 mg/kg): 21.07 ± 1.24 g
Body Weight (g) (d30) ([3]; mouse, in vivo, 25 mg/kg): 23.94 ± 1.67 g
Body Weight (g) (d1) ([3]; mouse, in vivo, 50 mg/kg): 21.25 ± 1.86 g
Body Weight (g) (d30) ([3]; mouse, in vivo, 50 mg/kg): 24.36 ± 1.53 g
Body Weight (g) (d1) ([3]; mouse, in vivo, 100 mg/kg): 20.47 ± 2.24 g
Body Weight (g) (d30) ([3]; mouse, in vivo, 100 mg/kg): 23.64 ± 1.44 g
Spleen Index (%) ([4]; dose 13 mg/kg): 0.32 ± 0.02%
Spleen Index (%) ([4]; dose 26 mg/kg): 0.33 ± 0.11%
Spleen Index (%) ([4]; dose 52 mg/kg): 0.35 ± 0.09%

O=P1(N(CCCl)CCCl)NCCCO1 (stereo not shown) [Cyclophosphamide, cyclophosphamide, reference compound]
Body Weight (d 1) [1, 14]: 21.65 ± 1.50 g
Body Weight (d 30) [1, 14]: 19.26 ± 1.49 g
Inhibition Rate (tumor growth inhibition rate) [1, 14]: 70.54%
Relative Tumor Proliferation Rate (T/C) [1, 14]: 37.73%
Relative Tumor Volume (RTV) [1, 14]: 5.89 ± 2.84
Tumor Volume (d 1) [1, 14]: 116.90 ± 7.18 mm3
Tumor Volume (d 30) [1, 14]: 691.84 ± 337.21 mm3
Tumor Weight [1, 14]: 0.38 ± 0.27 g
Inhibition Rate (%) ([3]; HepG-2 nude mice, 30 mg/kg): 71.04%
Relative Tumor Proliferation Rate (T/C) ([3]; HepG-2 nude mice, 30 mg/kg): 39.27%
Relative Tumor Volume (RTV) ([3]; HepG-2 nude mice, 30 mg/kg): 6.58 ± 2.18
Tumor Weight ([3]; HepG-2 nude mice, 30 mg/kg): 0.07 ± 0.38 g
Body Weight (g) (d1) ([3]; HepG-2 nude mice, 30 mg/kg, d1): 21.89 ± 1.84 g
Tumor Volume (mm3) (d 1) ([3]; HepG-2 nude mice, 30 mg/kg, d1): 119.66 ± 7.65 mm3
Body Weight (g) (d30) [3, 15]: 19.67 ± 1.49 g
Tumor Volume (mm3) (d30) [3, 15]: 792.56 ± 287.31 mm3
spleen index compared with the control group ([4]; A549 tumor-bearing mice, cyclophosphamide, P<0.01): significantly lower
Spleen Index (%) ([4]; dose 26 mg/kg): 0.21 ± 0.07 %
